Source: paper PMC6259748, “Selection of Peptides Targeting Helix 31 of Bacterial 16S Ribosomal RNA by Screening M13 Phage-Display Libraries” (Molecules, 2011)

Tests used:
[1] = test system: TYLPWPA-GFP (synthetic fusion (expressed by L-arabinose induction)); experiment: SPR; conditions: m2G966; m5C967 (E. coli numbering); 5' phosphorothioate; SPR: 10 mM Tris-HCl pH 7.5, 150 mM NaCl, 10 mM MgCl2, 1 mM DTT, 0.005% P20, 50 uL/min, streptavidin-coated CM5 chip; CD: 10 mM sodium phosphate pH 7, 100 mM …
[2] = test system: TLWDLIP-GFP (synthetic fusion (expressed by L-arabinose induction)); experiment: SPR; conditions: m2G966; m5C967 (E. coli numbering); 5' phosphorothioate; SPR: 10 mM Tris-HCl pH 7.5, 150 mM NaCl, 10 mM MgCl2, 1 mM DTT, 0.005% P20, 50 uL/min, streptavidin-coated CM5 chip; CD: 10 mM sodium phosphate pH 7, 100 mM …
[3] = test system: GFP (EmGFP); experiment: SPR; conditions: m2G966; m5C967 (E. coli numbering); 5' phosphorothioate; SPR: 10 mM Tris-HCl pH 7.5, 150 mM NaCl, 10 mM MgCl2, 1 mM DTT, 0.005% P20, 50 uL/min, streptavidin-coated CM5 chip; CD: 10 mM sodium phosphate pH 7, 100 mM …
[4] = test system: CVRPFAL-GFP (synthetic fusion (expressed by L-arabinose induction)); experiment: SPR; conditions: m2G966; m5C967 (E. coli numbering); 5' phosphorothioate; SPR: 10 mM Tris-HCl pH 7.5, 150 mM NaCl, 10 mM MgCl2, 1 mM DTT, 0.005% P20, 50 uL/min, streptavidin-coated CM5 chip; CD: 10 mM sodium phosphate pH 7, 100 mM …
[5] = test system: translation of green fluorescent protein (GFP); experiment: coupled in vitro transcription-translation inhibition assay (GFP); type: biochemical, E. coli; conditions: for order of translation inhibition by peptides (from high to low) / inhibitory effect on protein translation: peptides at 1 mM, GFP fluorescence; for inhibition of in vitro protein synthesis: cell-free translation, summary statement; for GFP fluorescence lower compared to DIRTQRE: peptide 1 mM, at 120 min, ex 487 nm; for inhibitory effect on protein translation: in words
Description: A cell-free translation assay was used to test the potential inhibitory effects of the peptides on protein synthesis. Different concentrations of peptides were added to E. coli S30 extracts and the extent of inhibition was monitored by the measurement of green fluorescent protein (GFP) translation.
The inhibitory effects of selected peptides (DIRTQRE, CVRPFAL, FVRPFAL, TLWDLIP and TYLPWPA) on cellular processes were determined by in vitro coupled transcription-translation inhibition assay. The PURExpress™ in vitro protein synthesis kit #E6800S from New England Biolabs (Beverly, MA) was used for this purpose. A DNA template for GFP (pRSETEmGFP plasmid, Invitrogen) was employed at a concentration of 10 µg/mL in a 15 µL of reaction volume. Different concentrations of peptides were added, ranging from 300 µM to 2 mM. The DNA template was added only after mixing of the peptides or streptomycin so that they could bind to their target region first. For the control, streptomycin was added at a final concentration of 300 µM. The reaction was incubated in 384-well, Costar, clear-well, black plates and in situ incubated at 37 °C in a Gemini XPS microplate spectrofluorometer (Molecular Devices, Sunnyvale, CA) and the amount of GFP produced was monitored at different time intervals from 0 min to 2 h by fluorescence (excitation at 487 nm, emission at 509 nm).

[6] = test system: GFP-S11-labeled 30S subunits; experiment: ribosome-binding assay on Tentagel beads; design: species or system E. coli; conditions: for order of binding preference by the 30S subunits (from high to low): fluorescence microscopy, pH 7.3; for fluorescence on beads after 30S binding: peptide on Tentagel beads, 30S subunits overnight at 4 °C, 20 mM HEPES, pH 7.3, 10 mM MgCl2, 100 mM KCl, duplicate
Description: The purpose of this experiment was to determine whether the selected peptides have affinity for bacterial ribosomes. The binding affinities of various peptides could also be compared by this method. Small ribosomal subunits, 30S, labeled with GFP on ribosomal protein S11 were added to peptides covalently attached to Tentagel beads (Figure 4A). […] The peptides were chemically synthesized on Tentagel beads with their N-termini exposed. Increasing concentrations of GFP-tagged 30S subunits were added to the Tentagel-bound peptides and unbound 30S subunits were removed by washing. Relative fluorescence intensity of the 30S subunits bound to the peptides on bead was determined by imaging on a fluorescence microscope, with the assumption that the level of fluorescence on the beads was proportional to the affinity of the ribosome for the peptide sequence.
Four peptides isolated from the phage-display experiment, […], DIRTQRE, TLWDLIP, and […], were synthesized on Tentagel (Rapp Polymer, Tübingen, Germany) beads using standard Fmoc synthesis. The beads were stored in DMF until use. The beads were then washed three times with 450 μl of water, and three times with 450 μL of the binding buffer B (binding buffer: 20 mM HEPES, pH 7.3, 10 mM MgCl2, 100 mM KCl), using 0.45 μm MWCO Nanosep (Pall Corporation, Ann Arbor, MI). The beads were then centrifuged at 6,000 rpm for 1–2 min.
Fluorescently labeled 30S subunits were isolated by sucrose gradient centrifugation in 5 mM Mg^2+ [82]. For control experiments, His(6)-EmGFP-S11 was purified using IMAC resin (Bio-Rad, Hercules, CA) and the fluorescence was assayed using beads carrying peptides with ribosomes, beads carrying peptides with His(6)-EmGFP-S11 (no ribosomes) and beads only with ribosomes (no peptides).
The fluorescent ribosomes were incubated in binding buffer B (20 mM HEPES, pH 7.3, 10 mM MgCl2, 100 mM KCl) at 37 °C for 30 min. Next, 25 pmoles of ribosome solution was added to each peptide, and the mixture was incubated overnight at 4 °C with agitation. Unbound ribosomes were removed by two 450 μL washes with binding buffer B and centrifugation at 6,000 rpm for 1–2 min. The beads were resuspended in 40 μL of binding buffer B for microscope screening and kept on ice until scanning. The beads (20 μL) were spread on microscope slides for scanning (Olympus 1X71 microscope, TH4 100 Olympus lamp, Olympus UCMAD 3 camera, 20× magnification). An average of two pictures were taken per slide, eliminating beads presenting uneven swelling and cracks.

[7] = test system: wild-type modified h31; experiment: surface plasmon resonance (SPR), modified h31; type: binding, E. coli
Description: Modified h31 was labeled with biotin in order to immobilize the RNA onto a surface and determine the kinetics of peptide binding by surface plasmon resonance (SPR). […] In order to enhance the signal-to-noise ratio, a GFP-protein-fused peptide, TYLPWPA-GFP, was generated and used as the analyte.
Biotinylated, modified h31 RNA was immobilized onto a streptavidin-coated CM5 chip and differing concentrations of TYLPWPA-GFP (10–100 µM) were injected as the analyte. A range of salt concentrations, detergent levels, pH conditions, and flow rates were tested, since these factors affect the peptide-RNA complex formation (data not shown). The apparent dissociation constants were determined under the following optimized conditions: 10 mM Tris·HCl, 150 mM NaCl, 10 mM MgCl2, 1 mM dithiothreitol (DTT), 0.005% (v/v) P20 at pH 7.5 as the running buffer at a flow rate of 50 μL/min.
All immobilization and subsequent binding studies were performed using a BIAcore 2000 instrument set at a temperature of 25 °C. Standard dextran surface BIAcore sensorchips (Sensor chip CM5) were purchased from BIAcore (GE Healthcare, Piscataway, NJ). Standard desorb and sanitize routines were performed according to the BIAcore guidelines before docking a new CM5 sensor chip. All buffers were filtered through sterile 0.2 μm nylon membranes (Millipore™) under vacuum. Before derivatizing the flow cells with streptavidin, the CM5 sensor chip was pre-conditioned using three successive 10 μL injections of chip-preparation solution (10 mM NaOH, 500 mM NaCl) at 100 μL/min, followed by a normalization routine using BIAnormalizing solution (40% glycerol). Streptavidin derivatization was performed according to standard procedures.
Prior to immobilization, the solution of biotinylated RNA in HBS-EP buffer (10 mM HEPES, 3 mM EDTA, 150 mM NaCl, 0.005% P20 at pH 7.4) was renatured by heating to 90 °C for 2 min, cooling gradually to room temperature, and placing on ice. Flow cells were functionalized by injecting 30 μL of RNA at a time using the MANUAL INJECT command at a flow rate of 10 μL/min, until the desired immobilization level was reached. One of the flow cells was used to immobilize RNA, while the adjacent cell remained unmodified to serve as a blank-control for matrix effects. Levels of RNA captured were calculated by subtracting […] for each flow cell. After RNA immobilization, both flow cells were blocked with 100 μL of 1 mg/mL biotin at 5 μL/min.
For the SPR experiments, the peptides were cloned into plasmid pBacEmGH (Cunningham Lab, to be described elsewhere) under transcriptional regulation of a PBAD promoter. Upon induction with L-arabinose, the resulting construct produces a fusion protein in which the peptide is fused to the N-terminus of EmGFP containing a C-terminus 6 x His affinity tag (PEP-EmGFP-6 x His).
Peptide samples were prepared by serial dilutions from stock solutions. Dilutions were made in running buffer (10 mM Tris·HCl, 150 mM NaCl, 10 mM MgCl2, 1 mM DTT, 0.005% (v/v) P20 at pH 7.5). All procedures for binding were automated, as optimized methods using repetitive cycles of sample injection and regeneration. Typically, running buffer was injected for ~30 min prior to experiment to establish a stable baseline value. Peptide solutions (200 μL) were injected at a kinetic flow rate of 50 μL/min, using the KINJECT command. All peptide samples were injected from 7 mm plastic vials (BIAcore) that were capped with pierceable plastic-crimp-caps to minimize carry-over and sample evaporation. Samples were injected in order of increasing concentration. The surface was regenerated using 150 μL of 500 mM NaCl. The data were fit to a 1:1 binding Langmuir model using BIAevaluation 3.0 software. […]

[8] = biological target: T1, TYLPWPA peptide (synthetic (phage display)); experiment: fluorescence titration (quenching); 10 mM HEPES, 50 mM NaCl, 1 mM Na2EDTA, pH 7.5, 25 C; apparent, 7% signal change; SPR: 10 mM Tris-HCl pH 7.5, 150 mM NaCl, 10 mM MgCl2, 1 mM DTT, 0.005% P20, 50 uL/min, streptavidin-coated CM5 chip; CD: 10 mM sodium phosphate pH 7, 100 mM NaCl, 0.1 mM Na2EDTA, 25 C; fluorescence: 10 mM HEPES pH 7.5, 50 mM NaCl, 1 mM Na2EDTA, 25 C; conditions: label: 5'-fluorescein; hairpin
T1 chain: TYLPWPA

[9] = biological target: T1, TYLPWPA peptide; experiment: CD titration; 100 mM NaCl, 10 mM sodium phosphate, 0.1 mM Na2EDTA, pH 7.0, 25 C; apparent, poor fit; SPR: 10 mM Tris-HCl pH 7.5, 150 mM NaCl, 10 mM MgCl2, 1 mM DTT, 0.005% P20, 50 uL/min, streptavidin-coated CM5 chip; CD: 10 mM sodium phosphate pH 7, 100 mM NaCl, 0.1 mM Na2EDTA, 25 C; fluorescence: 10 mM HEPES pH 7.5, 50 mM NaCl, 1 mM Na2EDTA, 25 C; conditions: hairpin

GUUCGAUGCAACGCGAAC [modified h31 (wild-type), biotinylated]
Kd [1]: 28 µM
Kd [2]: 0.33 µM
Kd [3]: 20 µM
Kd [4]: 0.23 µM

[H]/N=C(/N)N[C@H]1[C@H](O)[C@@H](O)[C@H](O[C@@H]2O[C@@H](C)[C@](O)(C=O)[C@H]2O[C@@H]2O[C@@H](CO)[C@H](O)[C@@H](O)[C@@H]2NC)[C@@H](N/C(N)=N\[H])[C@@H]1O [Streptomycin, streptomycin, reference compound]
inhibition of GFP translation ([5]; 300 µM, positive control, 37 °C, fluorescence ex 487 nm, em 509 nm): completely inhibited GFP translation

DIRTQRE [heptapeptide selected against wild-type modified h31]
order of translation inhibition by peptides (from high to low) ([5]; 37 °C): CVRPFAL ≈ FVRPFAL > TLWDLIP > TYLPWPA > DIRTQRE
order of binding preference by the 30S subunits (from high to low) ([6]; Tentagel beads): TYLPWPA > CVRPFAL ≈ TLWDLIP > DIRTQRE
relative binding affinity to 30S subunits ([6]; Tentagel beads, quantified fluorescence, of the four peptides tested): lowest relative affinity
fluorescence on beads after 30S binding [6]: Fluorescence is observed

TYLPWPA-GFP
ka (association rate constant) ([7]; 1:1 Langmuir, 10 mM Tris·HCl, 150 mM NaCl, 10 mM MgCl2, 1 mM DTT, 0.005% P20, pH 7.5, 50 μL/min, 25 °C, CM5 chip): (1.50 ± 0.02) × 10^2 M^-1s^-1
kd (dissociation rate constant) ([7]; 1:1 Langmuir, pH 7.5, 150 mM NaCl, 10 mM MgCl2, 50 μL/min, 25 °C, CM5 chip): (4.2 ± 0.04) × 10^-3 s^-1
KD (kd/ka) ([7]; SPR kinetic analysis, 1:1 Langmuir, pH 7.5, 150 mM NaCl, 10 mM MgCl2, 50 μL/min, 25 °C, TYLPWPA-GFP 10–100 µM): 28 ± 1 µM

FVRPFAL [heptapeptide selected against wild-type modified h31]
inhibition of in vitro protein synthesis [5]: promising results in the in vitro translation assay
GFP fluorescence lower compared to DIRTQRE ([5]; em 509 nm): four
order of translation inhibition by peptides (from high to low) ([5]; 37 °C): CVRPFAL ≈ FVRPFAL > TLWDLIP > TYLPWPA > DIRTQRE
inhibitory effect on protein translation [5]: best inhibitory effects

CVRPFAL [heptapeptide from selection against modified h31 with unmodified h31 counter selection]
binding affinity to modified h31 ([7]; in words, comparable to known antibiotics targeting 16S rRNA): high nM
inhibition of in vitro protein synthesis [5]: inhibit in vitro protein synthesis
GFP fluorescence lower compared to DIRTQRE ([5]; em 509 nm): four
order of translation inhibition by peptides (from high to low) ([5]; 37 °C): CVRPFAL ≈ FVRPFAL > TLWDLIP > TYLPWPA > DIRTQRE
inhibitory effect on protein translation [5]: best inhibitory effects
order of binding preference by the 30S subunits (from high to low) ([6]; Tentagel beads): TYLPWPA > CVRPFAL ≈ TLWDLIP > DIRTQRE
fluorescence on beads after 30S binding [6]: Fluorescence is observed

GUUCGAUGCAACGCGAAC (structured_RNA, m2G966; m5C967 (E. coli numbering); 5' phosphorothioate) [F-h31 (modified h31, fluorescein)]
Kd [8]: 27 ± 4 µM

GUUCGAUGCAACGCGAAC (structured_RNA, m2G966; m5C967 (E. coli numbering)) [modified h31 (wild-type), unlabeled]
Kd [9]: 28 ± 10 µM
